PubChem BioAssay (NCI)
Where “and” joins values, the source holds several entries; their conditions need not be identical. Equal values may be shown once.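 Exposure lasted 48 hours, with cells grown in 96-well plates and compounds tested at five concentrations. Abbreviation: GI50, concentration required for 50% inhibition of growth. TGI is the concentration that stops growth completely.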

Assays:
Assay in all cases: NCI tumour cell line growth inhibition, 48 h
[1] = tested on: HCT-15 colon
[2] = tested on: CAKI-1 renal
[3] = tested on: A498 renal
[4] = tested on: SK-MEL-28 melanoma
[5] = tested on: CCRF-CEM leukemia
[6] = tested on: KM12 colon
[7] = tested on: RPMI-8226 leukemia
[8] = tested on: NCI-H460 lung
[9] = tested on: 786-0 renal
[10] = tested on: LOX IMVI melanoma
[11] = tested on: NCI-H522 lung
[12] = tested on: SR leukemia
[13] = tested on: SK-MEL-2 melanoma
[14] = tested on: K-562 leukemia
[15] = tested on: MDA-MB-435
[16] = tested on: NCI-H226 lung
[17] = tested on: OVCAR-8 ovarian
[18] = tested on: T-47D breast
[19] = tested on: SK-OV-3 ovarian
[20] = tested on: EKVX NSCLC
[21] = tested on: SNB-19 CNS
[22] = tested on: MOLT-4 leukemia
[23] = tested on: U251 CNS
[24] = tested on: HOP-62 NSCLC
[25] = tested on: DU-145 prostate
[26] = tested on: HOP-92 NSCLC
[27] = tested on: HL-60(TB) leukemia
[28] = tested on: SK-MEL-5 melanoma
[29] = tested on: RXF 393 renal
[30] = tested on: HT29 colon
[31] = tested on: NCI-H23 lung
[32] = tested on: SF-268 CNS
[33] = tested on: SF-539 CNS
[34] = tested on: MDA-MB-231 breast
[35] = tested on: MCF7 breast
[36] = tested on: NCI/ADR-RES ovarian
[37] = tested on: IGROV1 ovarian
[38] = tested on: M14 melanoma
[39] = tested on: OVCAR-5 ovarian
[40] = tested on: SW-620 colon
[41] = tested on: UACC-257 melanoma
[42] = tested on: PC-3 prostate
[43] = tested on: ACHN renal
[44] = tested on: SN12C renal
[45] = tested on: SNB-75 CNS
[46] = tested on: HCT-116 colon
[47] = tested on: HCC-2998 colon
[48] = tested on: HS 578T breast
[49] = tested on: UACC-62 melanoma
[50] = tested on: OVCAR-4 ovarian
[51] = tested on: BT-549 breast
[52] = tested on: A549 NSCLC
[53] = tested on: TK-10 renal
[54] = tested on: MALME-3M melanoma
[55] = tested on: SF-295 CNS
[56] = tested on: COLO 205 colon
[57] = tested on: OVCAR-3 ovarian
[58] = tested on: UO-31 renal

## COC(=O)c1ccc2[nH]c(O)c(C(=Nc3ccc(N(C)C(=O)CN4CCN(C)CC4)cc3)c3cccc(OC)c3)c2c1
[1]
  GI50: 1900 nM
  TGI: 7040 nM
[2]
  GI50: 373 nM
  TGI: 3380 nM
[3]
  GI50: 1260 nM
  TGI: 2610 nM
[4]
  GI50: 1710 nM
  TGI: 3770 nM
[5]
  GI50: 447 nM
  TGI: 6830 nM
[6]
  GI50: 41.9 nM
  TGI: 4490 nM
[7]
  GI50: 1020 nM
  TGI: 3550 nM
[8]
  GI50: 1410 nM
  TGI: 3440 nM
[9]
  GI50: 825 nM
  TGI: 2380 nM
[10]
  GI50: 654 nM
  TGI: 2300 nM
[11]
  GI50: 1030 nM
  TGI: 3890 nM
[12]
  GI50: 231 nM
  TGI: 4520 nM
[13]
  GI50: 1890 nM
  TGI: 4510 nM
[14]
  GI50: 107 nM
  TGI: 4370 nM
[15]
  GI50: 1480 nM
  TGI: 3860 nM
[16]
  GI50: 1080 nM
  TGI: 5930 nM
[17]
  GI50: 1220 nM
  TGI: 9910 nM
[18]
  GI50: 1280 nM
  TGI: 9340 nM
[19]
  GI50: 198 nM
  TGI: 1880 nM
[20]
  GI50: 2040 nM
  TGI: 6770 nM
[21]
  GI50: 1640 nM
  TGI: 8400 nM
[22]
  GI50: 392 nM
  TGI: 3260 nM
[23]
  GI50: 1150 nM
  TGI: 3000 nM
[24]
  GI50: 1210 nM
  TGI: 4780 nM
[25]
  GI50: 1890 nM
  TGI: 9320 nM
[26]
  GI50: 2980 nM
  TGI: 10900 nM
[27]
  GI50: 583 nM
  TGI: 2510 nM
[28]
  GI50: 1430 nM
  TGI: 2780 nM
[29]
  GI50: 549 nM
  TGI: 1870 nM
[30]
  GI50: 890 nM
  TGI: 13100 nM
[31]
  GI50: 1050 nM
  TGI: 3480 nM
[32]
  GI50: 1480 nM
  TGI: 4080 nM
[33]
  GI50: 463 nM
  TGI: 1690 nM
[34]
  GI50: 1310 nM
  TGI: 3270 nM
[35]
  GI50: 353 nM
  TGI: 1930 nM
[36]
  GI50: 12400 nM
  TGI: 34000 nM
[37]
  GI50: 191 nM
  TGI: 2190 nM
[38]
  GI50: 921 nM
  TGI: 2410 nM
[39]
  GI50: 2290 nM
  TGI: 5460 nM
[40]
  GI50: 429 nM
  TGI: 4950 nM
[41]
  GI50: 2010 nM
  TGI: 4640 nM
[42]
  GI50: 631 nM
  TGI: 5870 nM
[43]
  GI50: 2140 nM
  TGI: 7990 nM
[44]
  GI50: 346 nM
  TGI: 10800 nM
[45]
  GI50: 112 nM
  TGI: 1780 nM
[46]
  GI50: 210 nM
  TGI: 4660 nM
[47]
  GI50: 1650 nM
  TGI: 4980 nM
[48]
  GI50: 213 nM
  TGI: 4130 nM
[49]
  GI50: 2140 nM
  TGI: 4520 nM
[50]
  GI50: 960 nM
  TGI: 2840 nM
[51]
  GI50: 1390 nM
  TGI: 3470 nM
[52]
  GI50: 1390 nM
  TGI: 6420 nM
[53]
  GI50: 1610 nM
  TGI: 3780 nM
[54]
  GI50: 1490 nM
  TGI: 2960 nM
[55]
  GI50: 1120 nM
  TGI: 2630 nM
[56]
  GI50: 395 nM
  TGI: 1800 nM
[57]
  GI50: 960 nM
  TGI: 2570 nM
[58]
  GI50: 1540 nM
  TGI: 4050 nM

## CC(=O)O[C@H]1C[C@H](O[C@H]2[C@@H](O)C[C@H](O[C@H]3[C@@H](O)C[C@H](O[C@H]4CC[C@@]5(C)C(CCC6C5C[C@@H](O)[C@]5(C)[C@@H](C7=CC(=O)OC7)CC[C@]65O)C4)O[C@@H]3C)O[C@@H]2C)O[C@H](C)[C@H]1O[C@@H]1O[C@H](CO)[C@@H](O)[C@H](O)[C@H]1O (stereo not given in full)
[1]
  GI50: 58.7 nM and 200 nM
  TGI: 174 nM and 465 nM
[2]
  GI50: 29.4 nM and 81.3 nM
  TGI: 183 nM and 345 nM
[3]
  GI50: 78 nM
  TGI: 412 nM
[4]
  GI50: 115 nM and 215 nM
  TGI: 237 nM and 496 nM
[5]
  GI50: 17.3 nM and 33.3 nM
  TGI: 49.7 nM and 180 nM
[6]
  GI50: 31.9 nM and 161 nM
  TGI: 140 nM and 382 nM
[7]
  GI50: 68.2 nM and 200 nM
  TGI: 315 nM and 955 nM
[8]
  GI50: 16.5 nM and 34.5 nM
  TGI: 55.7 nM and 135 nM
[9]
  GI50: 25.1 nM and 105 nM
  TGI: 89.4 nM and 223 nM
[10]
  GI50: 26.1 nM and 81.8 nM
  TGI: 93.7 nM and 238 nM
[11]
  GI50: 10.7 nM and 37.5 nM
  TGI: 37.6 nM and 126 nM
[12]
  GI50: 15.1 nM and 44 nM
  TGI: 97.7 nM and 281 nM
[13]
  GI50: 315 nM
  TGI: 1000 nM
[14]
  GI50: 27.2 nM
  TGI: 204 nM
[15]
  GI50: 110 nM and 275 nM
  TGI: 307 nM and 893 nM
[16]
  GI50: 174 nM
  TGI: 314 nM
[17]
  GI50: 38.5 nM and 159 nM
  TGI: 104 nM and 385 nM
[18]
  GI50: 22.8 nM and 166 nM
  TGI: 167 nM and 576 nM
[19]
  GI50: 28.7 nM and 160 nM
  TGI: 99.6 nM and 314 nM
[20]
  GI50: 22.4 nM and 56.6 nM
  TGI: 83.6 nM and 202 nM
[21]
  GI50: 69.2 nM and 212 nM
  TGI: 256 nM and 557 nM
[22]
  GI50: 11.7 nM and 25.7 nM
  TGI: 28.8 nM and 65.6 nM
[23]
  GI50: 29.8 nM and 113 nM
  TGI: 91 nM and 234 nM
[24]
  GI50: 19.6 nM and 65.1 nM
  TGI: 69.1 nM and 189 nM
[25]
  GI50: 13.8 nM and 110 nM
  TGI: 38.7 nM and 232 nM
[26]
  GI50: 78.1 nM and 158 nM
  TGI: 243 nM and 612 nM
[27]
  GI50: 11.2 nM
  TGI: 28.3 nM
[28]
  GI50: 18.7 nM and 109 nM
  TGI: 69.9 nM and 233 nM
[29]
  GI50: 15.8 nM and 63.6 nM
  TGI: 63.6 nM and 385 nM
[30]
  GI50: 24.6 nM and 120 nM
  TGI: 86.8 nM and 395 nM
[31]
  GI50: 15.1 nM and 46.8 nM
  TGI: 58.6 nM and 206 nM
[32]
  GI50: 18.5 nM and 51.1 nM
  TGI: 73.7 nM and 165 nM
[33]
  GI50: 21.7 nM and 105 nM
  TGI: 78.3 nM and 225 nM
[34]
  GI50: 238 nM and 234 nM
  TGI: 1350 nM and 652 nM
[35]
  GI50: 24.8 nM and 57.5 nM
  TGI: 189 nM and 694 nM
[36]
  GI50: 23.3 nM and 76.4 nM
  TGI: 86.1 nM and 250 nM
[37]
  GI50: 68.5 nM and 229 nM
  TGI: 1370 nM and 1310 nM
[38]
  GI50: 103 nM and 212 nM
  TGI: 244 nM and 399 nM
[39]
  GI50: 65.8 nM and 175 nM
  TGI: 140 nM and 327 nM
[40]
  GI50: 23.8 nM and 63.1 nM
  TGI: 86 nM and 302 nM
[41]
  GI50: 85.2 nM and 347 nM
  TGI: 162 nM and 1180 nM
[42]
  GI50: 28.7 nM and 103 nM
  TGI: 225 nM and 590 nM
[43]
  GI50: 20.4 nM and 44 nM
  TGI: 69 nM and 179 nM
[44]
  GI50: 20 nM and 47.1 nM
  TGI: 581 nM and 413 nM
[45]
  GI50: 57.7 nM and 138 nM
  TGI: 147 nM and 304 nM
[46]
  GI50: 18.2 nM and 39.4 nM
  TGI: 64 nM and 134 nM
[47]
  GI50: 73 nM and 242 nM
  TGI: 210 nM and 678 nM
[48]
  TGI: 1640 nM
[49]
  GI50: 93.8 nM and 173 nM
  TGI: 196 nM and 343 nM
[50]
  GI50: 122 nM
  TGI: 442 nM
[51]
  GI50: 39.4 nM
  TGI: 129 nM
[52]
  GI50: 9.03 nM and 31.9 nM
  TGI: 16.5 nM and 108 nM
[53]
  GI50: 14.6 nM and 145 nM
[54]
  GI50: 21.7 nM and 183 nM
  TGI: 130 nM and 469 nM
[55]
  GI50: 26.8 nM and 73.7 nM
  TGI: 286 nM and 581 nM
[56]
  GI50: 284 nM
  TGI: 676 nM
[57]
  GI50: 18.6 nM and 93.2 nM
  TGI: 65.6 nM and 218 nM
[58]
  GI50: 64.8 nM and 179 nM
  TGI: 237 nM and 343 nM
